In publication PMC10882696, “Novel 5-Substituted Oxindole Derivatives as Bruton’s Tyrosine Kinase Inhibitors: Design, Synthesis, Docking, Molecular Dynamics Simulation, and Biological Evaluation” (ACS Omega, 2024):
Entries after “also recorded” stand apart in the source; their conditions may differ. Structures can show the parent of a compound that is named as a salt.

Tests used:
A549 = experiment: 3 day MTS cytotoxicity assay, A549; format: cell-based; details: Homo sapiens; A549, ITK/BTK-negative; mean ± SD, n ≥ 6
Method: (§1) The cytotoxic activity of all the 10 compounds was tested under in vitro conditions using a 3 day standard 3-(4,5-dimethylthiazol-2yl)-5-(3-carboxymethoxyphenyl)-2-(4-sulfophenyl)-2H-tetrazolium reduction assay in 384-well plates on a robotic high-throughput screening platform (HighResBio, Boston, MA) as described elsewhere.[38] The IC50 values were calculated from the respective dose–response curves of compounds with Dotmatics (San Diego, CA, USA).

HCT116 = experiment: 3 day MTS cytotoxicity assay, HCT116; format: cell-based; details: Homo sapiens, HCT-116; HCT116, ITK/BTK-negative; mean ± SD, n ≥ 6
Method: as §1

HCT116p53^–/– = experiment: 3 day MTS cytotoxicity assay, HCT116p53-/-; format: cell-based; details: ITK/BTK-negative, mean ± SD, n ≥ 6
Method: as §1

U2OS = experiment: 3 day MTS cytotoxicity assay, U2OS; format: cell-based; details: Homo sapiens, ITK/BTK-negative, mean ± SD, n ≥ 6
Method: as §1

JURKAT = experiment: 3 day MTS cytotoxicity assay, JURKAT; format: cell-based; details: Homo sapiens, ITK-positive, mean ± SD, n ≥ 6
Method: as §1

CCRF-CEM = experiment: 3 day MTS cytotoxicity assay, CCRF-CEM; format: cell-based; details: Homo sapiens, ITK-positive, mean ± SD, n ≥ 6
Method: as §1

RAMOS = experiment: 3 day MTS cytotoxicity assay, RAMOS; format: cell-based, human; details: for activity in RAMOS cells: BTK-high; for IC50: Homo sapiens, Ramos, BTK-positive, mean ± SD, n ≥ 6
Method: as §1

K562 = experiment: 3 day MTS cytotoxicity assay, K562; format: cell-based; details: Homo sapiens; K562, BTK-positive; mean ± SD, n ≥ 6
Method: as §1

MRC-5 = experiment: 3 day MTS cytotoxicity assay, MRC-5; format: cell-based; details: Homo sapiens, MRC5; MRC-5, non-cancer fibroblasts; mean ± SD, n ≥ 6
Method: as §1

BJ = experiment: 3 day MTS cytotoxicity assay, BJ; format: cell-based; details: Homo sapiens, non-cancer fibroblasts, mean ± SD, n ≥ 6
Method: as §1

| SMILES | melting point | IC50 (A549) | IC50 (HCT116) | IC50 (HCT116p53^–/–) | IC50 (U2OS) | IC50 (JURKAT) | IC50 (CCRF-CEM) | activity in RAMOS cells (RAMOS) | IC50 (RAMOS) | IC50 (K562) | IC50 (MRC-5) | IC50 (BJ) |
| --- | --- | --- | --- | --- | --- | --- | --- | --- | --- | --- | --- | --- |
| O=C1Nc2ccc(S(=O)(=O)N3CCN(C(=O)C4CCCCC4)CC3)cc2C1=C1CCCC1 (as salt: hydrochloride) [9b, 5-((4-(Cyclohexanecarbonyl)piperazin-1-yl)sulfonyl)-3-cyclopentylideneindolin-2-one] | 140 to 145 °C | – | – | – | – | – | – | – | – | – | – | – |
| O=C1Nc2ccc(S(=O)(=O)N3CCN(C(=O)C4CC4)CC3)cc2C1=C1CCCC1 (as salt: hydrochloride) [9c, 3-Cyclopentylidene-5-((4-(cyclopropanecarbonyl)piperazin-1-yl)sulfonyl)indolin-2-one] | 136 to 142 °C | – | – | – | – | – | – | – | – | – | – | – |
| O=C1Nc2ccc(S(=O)(=O)N3CCN(C(=O)c4ccccc4)CC3)cc2C1=C1CCCC1 (as salt: hydrochloride) [9d, 5-((4-Benzoylpiperazin-1-yl)sulfonyl)-3-cyclopentylideneindolin-2-one] | 135 to 140 °C | – | – | – | – | – | – | – | – | – | – | – |
| O=C1Nc2ccc(S(=O)(=O)N3CCN(C(=O)c4cccc(Cl)c4)CC3)cc2C1=C1CCCC1 (as salt: hydrochloride) [9e, 5-((4-(3-Chlorobenzoyl)piperazin-1-yl)sulfonyl)-3-cyclopentylideneindolin-2-one] | 133 to 138 °C | – | – | – | – | – | – | – | – | – | – | – |
| O=C1Nc2ccc(S(=O)(=O)N3CCN(C(=O)c4cccc(Br)c4)CC3)cc2C1=C1CCCC1 (as salt: hydrochloride) [9f, 5-((4-(3-Bromobenzoyl)piperazin-1-yl)sulfonyl)-3-cyclopentylideneindolin-2-one] | 130 to 135 °C | – | – | – | – | – | – | – | – | – | – | – |
| O=C1Nc2ccc(S(=O)(=O)N3CCN(C(=O)c4cccc(F)c4)CC3)cc2C1=C1CCCC1 (as salt: hydrochloride) [9g, 3-Cyclopentylidene-5-((4-(3-fluorobenzoyl)piperazin-1-yl)sulfonyl)indolin-2-one] | 132 to 135 °C | – | – | – | – | – | – | – | – | – | – | – |
| CCCCC(=O)N1CCN(S(=O)(=O)c2ccc3c(c2)C(=C2CCCC2)C(=O)N3)CC1 (as salt: hydrochloride) [9h, 3-Cyclopentylidene-5-((4-pentanoylpiperazin-1-yl)sulfonyl)indolin-2-one] | 130 to 135 °C | – | – | – | – | – | – | – | – | – | – | – |
| O=C1Nc2ccc(S(=O)(=O)N3CCN(C(=O)c4cccnc4)CC3)cc2C1=C1CCCC1 (as salt: hydrochloride) [9i, 3-Cyclopentylidene-5-((4-nicotinoylpiperazin-1-yl)sulfonyl)indolin-2-one] | 195 to 200 °C | – | – | – | – | – | – | – | – | – | – | – |
| O=C1Nc2ccc(S(=O)(=O)N3CCN(C(=O)c4cccc(C(F)(F)F)c4)CC3)cc2C1=C1CCCC1 (as salt: hydrochloride) [9j, 3-Cyclopentylidene-5-((4-(3-(trifluoromethyl)benzoyl)piperazin-1-yl)sulfonyl)indolin-2-one] | 139 to 143 °C | – | – | – | – | – | – | – | – | – | – | – |
| CC(C)C(=O)N1CCN(S(=O)(=O)c2ccc3c(c2)C(=C2CCCC2)C(=O)N3)CC1 [9a, 3-Cyclopentylidene-5-((4-isobutyrylpiperazin-1-yl)sulfonyl)indolin-2-one] | 165 to 171 °C | > 50 µM | > 50 µM | > 50 µM | > 50 µM | > 50 µM | > 50 µM | no activity | > 50 µM | > 50 µM | > 50 µM | > 50 µM |
| O=C1Nc2ccc(S(=O)(=O)N3CCN(C(=O)C4CC4)CC3)cc2C1=C1CCCC1 [9c, 3-Cyclopentylidene-5-((4-(cyclopropanecarbonyl)piperazin-1-yl)sulfonyl)indolin-2-one] | – | > 50 µM | > 50 µM | > 50 µM | > 50 µM | 50 µM | > 50 µM | did not show any activity | > 50 µM | > 50 µM | > 50 µM | > 50 µM |
| O=C1Nc2ccc(S(=O)(=O)N3CCN(C(=O)c4ccccc4)CC3)cc2C1=C1CCCC1 [9d, 5-((4-Benzoylpiperazin-1-yl)sulfonyl)-3-cyclopentylideneindolin-2-one] | – | > 50 µM | > 50 µM | > 50 µM | > 50 µM | > 50 µM | > 50 µM | did not show any activity | > 50 µM | > 50 µM | > 50 µM | > 50 µM |
| O=C1Nc2ccc(S(=O)(=O)N3CCN(C(=O)c4cccc(Cl)c4)CC3)cc2C1=C1CCCC1 [9e, 5-((4-(3-Chlorobenzoyl)piperazin-1-yl)sulfonyl)-3-cyclopentylideneindolin-2-one] | – | > 50 µM | > 50 µM | > 50 µM | > 50 µM | > 50 µM | > 50 µM | did not show any activity | > 50 µM | > 50 µM | > 50 µM | > 50 µM |
| O=C1Nc2ccc(S(=O)(=O)N3CCN(C(=O)c4cccc(F)c4)CC3)cc2C1=C1CCCC1 [9g, 3-Cyclopentylidene-5-((4-(3-fluorobenzoyl)piperazin-1-yl)sulfonyl)indolin-2-one] | – | > 50 µM | > 50 µM | > 50 µM | > 50 µM | > 50 µM | 46.5 ± 5.81 µM | selective cytotoxicity; also recorded: showed activity; also recorded: good anticancer activity in the micromole range | 2.09 ± 0.47 µM | > 50 µM | > 50 µM | > 50 µM |
| O=C1Nc2ccc(S(=O)(=O)N3CCN(C(=O)c4cccnc4)CC3)cc2C1=C1CCCC1 [9i, 3-Cyclopentylidene-5-((4-nicotinoylpiperazin-1-yl)sulfonyl)indolin-2-one] | – | > 50 µM | > 50 µM | > 50 µM | > 50 µM | > 50 µM | > 50 µM | no activity | > 50 µM | > 50 µM | > 50 µM | > 50 µM |
| O=C1Nc2ccc(S(=O)(=O)N3CCN(C(=O)c4cccc(C(F)(F)F)c4)CC3)cc2C1=C1CCCC1 [9j, 3-Cyclopentylidene-5-((4-(3-(trifluoromethyl)benzoyl)piperazin-1-yl)sulfonyl)indolin-2-one] | – | > 50 µM | > 50 µM | > 50 µM | 23.6 ± 6.44 µM | > 50 µM | > 50 µM | no activity | > 50 µM | > 50 µM | 27.4 ± 6.8 µM | > 50 µM |
| C=CC(=O)N1CCC[C@@H](n2nc(-c3ccc(Oc4ccccc4)cc3)c3c(N)ncnc32)C1 [ibrutinib, Ibrutinib, reference compound] | – | – | 30 ± 1 µM | 30 ± 1 µM | 23 ± 3 µM | 5 ± 1 µM | 4 ± 1 µM | – | 0.3 µM | 27 ± 3 µM | 28 µM | 29 ± 1 µM |
